Assay results as given in ChEMBL document CHEMBL1148974, “New eudesmane derivatives from Melampodium camphoratum from the Suriname rainforest” (J Nat Prod, 2004).
In brackets after ≈: the same amount, converted by molar mass.

System: Plasmodium falciparum
Test: Antimalarial activity as reduced heme degradation in Plasmodium falciparum infected human erythrocytes
Format: functional, organism-based

Row | Compound | DC50 [µg/mL]
1 | C=C1CCC[C@]2(C)CC[C@@H](C(C)C)[C@H](OC(=O)/C=C/c3ccc(O)cc3)[C@@H]12 | > 200
2 | C=C1CCC[C@]2(C)CC[C@@H](C(C)C)[C@H](OC(=O)/C=C\c3ccc(O)cc3)[C@@H]12 | > 200
3 | C=C1CCC[C@]2(C)CC[C@@H](C(C)C)[C@H](OC(=O)/C=C\c3ccc(OC(C)=O)cc3)[C@@H]12 | > 200

Stronger by DC50, values ahead:

Row | DC50 [µg/mL] | Compound
4 | 75 (≈ 124 µM) | C=C1CCC[C@]2(C)CC[C@@H](C(C)C)[C@H](OC(=O)/C=C/c3ccc(OC(=O)CCCCCCCCCCCCCCC)cc3)[C@@H]12
5 | 1.3 (≈ 4.01 µM) | C=C[C@H]1CN2CC[C@H]1C[C@H]2[C@H](O)c1ccnc2ccc(OC)cc12 [QUININE]
6 | 48 (≈ 125 µM) | C=C1CCC[C@]2(C)CC[C@@H](C(C)C)[C@H](OC(=O)/C=C/c3ccc(OC)cc3)[C@@H]12
7 | 110 (≈ 173 µM) | C=C1CCC[C@]2(C)CC[C@@H](C(C)C)[C@H](OC(=O)/C=C/c3ccc(OC(=O)CCCCCCCCCCCCCCCCC)cc3)[C@@H]12
8 | 52 (≈ 86 µM) | C=C1CCC[C@]2(C)CC[C@@H](C(C)C)[C@H](OC(=O)/C=C/c3ccc(OC(=O)CCCCCCC/C=C\CCCCCC)cc3)[C@@H]12
